Where two headings read alike, the source gives them in different places.
Key:
[1] = target: T1, UGT1A6 (Homo sapiens, UniProt P19224); settings: for residual activity 1A6: recombinant human UGT, mean of triplicate
T1 sequence (P19224 27-532): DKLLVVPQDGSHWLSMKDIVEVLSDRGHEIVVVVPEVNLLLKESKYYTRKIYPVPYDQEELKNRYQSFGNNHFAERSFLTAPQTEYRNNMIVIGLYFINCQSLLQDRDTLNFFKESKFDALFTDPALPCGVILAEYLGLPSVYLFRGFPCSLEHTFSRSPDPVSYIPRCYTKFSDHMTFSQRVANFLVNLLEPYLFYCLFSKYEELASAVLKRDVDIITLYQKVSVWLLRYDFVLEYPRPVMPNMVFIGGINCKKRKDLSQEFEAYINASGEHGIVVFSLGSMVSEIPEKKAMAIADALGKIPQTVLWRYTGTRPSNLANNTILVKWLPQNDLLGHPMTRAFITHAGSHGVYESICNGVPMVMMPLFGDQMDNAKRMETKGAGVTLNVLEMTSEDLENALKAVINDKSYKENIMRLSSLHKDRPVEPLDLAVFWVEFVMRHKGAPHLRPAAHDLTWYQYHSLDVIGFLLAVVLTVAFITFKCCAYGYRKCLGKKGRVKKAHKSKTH

[2] = target: T2, UGT1A1 (Homo sapiens, UniProt P22309); test: UGT1A1 supersomes-catalyzed 4-MU glucuronidation inhibition; settings: recombinant human UGT, mean of triplicate
T2 sequence (P22309 26-533): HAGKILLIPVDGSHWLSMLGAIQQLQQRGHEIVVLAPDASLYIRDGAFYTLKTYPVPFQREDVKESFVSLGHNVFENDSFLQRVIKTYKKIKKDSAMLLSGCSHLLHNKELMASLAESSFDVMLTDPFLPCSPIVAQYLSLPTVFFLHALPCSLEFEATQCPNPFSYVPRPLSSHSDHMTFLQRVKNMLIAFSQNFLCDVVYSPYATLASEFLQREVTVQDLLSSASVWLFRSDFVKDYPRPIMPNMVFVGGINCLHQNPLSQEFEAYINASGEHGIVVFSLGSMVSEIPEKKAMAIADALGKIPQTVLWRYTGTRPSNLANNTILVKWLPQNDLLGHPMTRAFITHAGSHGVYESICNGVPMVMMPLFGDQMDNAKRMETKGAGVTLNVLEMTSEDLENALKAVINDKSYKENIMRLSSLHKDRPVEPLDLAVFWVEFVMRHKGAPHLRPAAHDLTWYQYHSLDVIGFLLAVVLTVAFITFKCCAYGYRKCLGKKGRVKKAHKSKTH

[3] = target: T3, UGT2B4 (Homo sapiens, UniProt P06133); test: UGT2B4 supersomes-catalyzed 4-MU glucuronidation inhibition; settings: recombinant human UGT, mean of triplicate
T3 sequence (P06133 24-528): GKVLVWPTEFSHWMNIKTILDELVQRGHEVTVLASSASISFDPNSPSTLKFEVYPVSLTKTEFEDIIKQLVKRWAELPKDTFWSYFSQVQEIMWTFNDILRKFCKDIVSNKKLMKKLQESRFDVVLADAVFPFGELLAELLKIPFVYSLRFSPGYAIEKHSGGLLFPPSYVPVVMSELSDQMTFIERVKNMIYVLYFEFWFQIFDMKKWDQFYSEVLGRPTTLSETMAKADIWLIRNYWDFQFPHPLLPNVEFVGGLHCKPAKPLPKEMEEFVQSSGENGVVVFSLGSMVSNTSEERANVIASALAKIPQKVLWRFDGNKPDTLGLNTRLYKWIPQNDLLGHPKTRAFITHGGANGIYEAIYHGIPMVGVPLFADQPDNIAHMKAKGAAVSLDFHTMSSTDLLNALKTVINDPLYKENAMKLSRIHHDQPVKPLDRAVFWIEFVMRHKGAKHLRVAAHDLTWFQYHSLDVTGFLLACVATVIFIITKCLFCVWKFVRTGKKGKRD

[4] = target: T4, UGT1A3 (Homo sapiens, UniProt P35503); test: UGT1A3 supersomes-catalyzed 4-MU glucuronidation inhibition; settings: recombinant human UGT, mean of triplicate
T4 sequence (P35503 29-534): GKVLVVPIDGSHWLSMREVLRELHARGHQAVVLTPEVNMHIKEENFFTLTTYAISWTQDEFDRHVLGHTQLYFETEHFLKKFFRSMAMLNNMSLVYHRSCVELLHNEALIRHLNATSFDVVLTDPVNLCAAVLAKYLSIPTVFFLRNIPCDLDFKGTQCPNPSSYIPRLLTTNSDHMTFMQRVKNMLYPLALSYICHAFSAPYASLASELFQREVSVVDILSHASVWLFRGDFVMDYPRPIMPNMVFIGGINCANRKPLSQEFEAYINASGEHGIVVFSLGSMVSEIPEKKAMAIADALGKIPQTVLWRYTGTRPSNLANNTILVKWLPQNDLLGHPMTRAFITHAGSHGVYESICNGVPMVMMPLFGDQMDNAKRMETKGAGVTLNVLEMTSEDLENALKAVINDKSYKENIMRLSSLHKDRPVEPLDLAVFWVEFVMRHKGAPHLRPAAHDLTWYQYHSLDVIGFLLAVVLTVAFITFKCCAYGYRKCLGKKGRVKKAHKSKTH

[5] = target: T5, UGT2B7 (Homo sapiens, UniProt P16662); test: UGT2B7 supersomes-catalyzed 4-MU glucuronidation inhibition; settings: for residual activity 2B7: recombinant human UGT, mean of triplicate
T5 sequence (P16662 24-529): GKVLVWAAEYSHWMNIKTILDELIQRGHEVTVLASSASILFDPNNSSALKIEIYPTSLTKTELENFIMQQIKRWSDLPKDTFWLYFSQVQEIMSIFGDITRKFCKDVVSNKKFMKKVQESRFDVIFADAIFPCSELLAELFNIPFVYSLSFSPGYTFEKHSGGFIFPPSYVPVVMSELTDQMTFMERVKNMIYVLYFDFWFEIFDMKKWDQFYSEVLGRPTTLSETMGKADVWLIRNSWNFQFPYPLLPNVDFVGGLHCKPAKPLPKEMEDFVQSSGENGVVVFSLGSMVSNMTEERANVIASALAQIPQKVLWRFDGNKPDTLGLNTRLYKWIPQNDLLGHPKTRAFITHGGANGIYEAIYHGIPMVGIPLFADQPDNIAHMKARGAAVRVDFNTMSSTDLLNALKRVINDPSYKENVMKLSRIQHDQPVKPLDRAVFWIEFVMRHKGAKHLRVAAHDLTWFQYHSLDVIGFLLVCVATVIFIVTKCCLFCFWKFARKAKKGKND

Compound	residual activity 1A6 ([1]; 50 μM PC components)	residual activity 1A1 ([2]; 50 μM PC components)	residual activity 2B4 ([3]; 50 μM PC components)	residual activity 1A3 ([4]; 50 μM PC components)	residual activity 2B7 ([5]; 50 μM PC components)	inhibition percentage of UGT2B7 activity ([5]; 50 μM)	residual activity 1A6 ([1]; 50 μM LPC components)	residual activity 1A1 ([2]; 50 μM LPC components)	residual activity 2B4 ([3]; 50 μM LPC components)	residual activity 1A3 ([4]; 50 μM LPC components)	residual activity 2B7 ([5]; 50 μM LPC components)	inhibition kinetic type towards UGT1A6 ([1]; Dixon and Lineweaver-Burk plots, 4-MU glucuronidation)
CCCCCCCCCCCCCCCCCCCCC(=O)OC[C@H](COP(=O)([O-])OCC[N+](C)(C)C)OC(=O)CCCCCCCCCCCCCCCCCCCC [PC 21:0, 21:0]	85.4%	185.2%	80.3%	88.2%	26.2%	–	–	–	–	–	–	–
CCCCCCCCCCCCCCCCCCC(=O)OC[C@H](COP(=O)([O-])OCC[N+](C)(C)C)OC(=O)CCCCCCCCCCCCCCCCCC [PC 19:0, 19:0]	49.1%	184.9%	83.4%	75.9%	23.1%	76.9%	–	–	–	–	–	–
CCCCCCCCCC(=O)OC[C@@H](O)COP(=O)([O-])OCC[N+](C)(C)C [LPC 10:0]	–	–	–	–	–	–	65.7%	170.2%	208.4%	75.9%	77.3%	–
CCCCCCCCCCCCCC(=O)OC[C@H](COP(=O)([O-])OCC[N+](C)(C)C)OC(=O)CCCCCCCCCCCCC [PC 14:0, 14:0]	54.3%	208.9%	179.0%	97.3%	66.1%	–	–	–	–	–	–	–
CCCCCCCCCCCCCCCC(=O)OC[C@H](COP(=O)([O-])OCC[N+](C)(C)C)OC(=O)CCCCCCCCCCCCCCC [PC 16:0, 16:0]	53.7%	192.6%	185.1%	92.6%	60.3%	–	–	–	–	–	–	–
CCCCCCCCCCCCCCC(=O)OC[C@@H](O)COP(=O)([O-])OCC[N+](C)(C)C [LPC 15:0]	–	–	–	–	–	–	2.9%	162.9%	152.6%	52.8%	43.9%	competitive inhibition
CCCCCCCCCCCC(=O)OC[C@H](COP(=O)([O-])OCC[N+](C)(C)C)OC(=O)CCCCCCCCCCC [PC 12:0, 12:0]	40.8%	208.8%	182.7%	93.0%	85.8%	–	–	–	–	–	–	–
CCCCCCCCCCCCCCCCCC(=O)OC[C@H](COP(=O)([O-])OCC[N+](C)(C)C)OC(=O)CCCCCCCCCCCCCCCCC [PC 18:0, 18:0]	50.7%	208.2%	93.4%	83.7%	36.0%	–	–	–	–	–	–	–
CCCCCCCCCCCCCCCCCCCC(=O)OC[C@H](COP(=O)([O-])OCC[N+](C)(C)C)OC(=O)CCCCCCCCCCCCCCCCCCC [PC 20:0, 20:0]	88.2%	202.3%	79.5%	90.8%	88.9%	–	–	–	–	–	–	–
CCCCCCC(=O)OC[C@H](COP(=O)([O-])OCC[N+](C)(C)C)OC(=O)CCCCCC [PC 7:0, 7:0]	50.7%	176.8%	186.9%	109.9%	64.5%	–	–	–	–	–	–	–
CCCCCCCCCCCCC(=O)OC[C@@H](O)COP(=O)([O-])OCC[N+](C)(C)C [LPC 13:0]	–	–	–	–	–	–	83.8%	160.6%	239.4%	88.1%	79.9%	–
CCCCCC(=O)OC[C@H](COP(=O)([O-])OCC[N+](C)(C)C)OC(=O)CCCCC [PC 6:0, 6:0]	67.3%	187.8%	178.7%	105.1%	70.2%	–	–	–	–	–	–	–
CCCCCCCCCCCCCC(=O)OC[C@@H](O)COP(=O)([O-])OCC[N+](C)(C)C [LPC 14:0]	–	–	–	–	–	–	33.3%	171.3%	217.1%	74.2%	90.5%	–
CCCCCCCCCCCCCCCCC(=O)OC[C@H](COP(=O)([O-])OCC[N+](C)(C)C)OC(=O)CCCCCCCCCCCCCCCC [PC 17:0, 17:0]	49.1%	192.3%	175.4%	81.4%	35.5%	–	–	–	–	–	–	–
CCCCCCCCCCCCCCCCCCCCCCC(=O)OC[C@H](COP(=O)([O-])OCC[N+](C)(C)C)OC(=O)CCCCCCCCCCCCCCCCCCCCCC [PC 23:0, 23:0]	98.9%	133.7%	168.3%	80.4%	69.5%	–	–	–	–	–	–	–
